{"source": "patent US8288439B2", "about": "“Methods and compositions for the inhibition of HIV-1 replication” (The United States of America, as represented by the …, priority 2003, dated 2012)", "key": {"[1]": {"system": "HIV-1", "details": "for viral replication / HIV-1 growth as determined by p24 levels: oligonucleotide 50 nM, after HIV-1 infection and at refeeding, day 12, vs HIV control without oligo", "method": "Monocytes are plated in 6 well plates (Corning Costar Corporation, Cambridge, Mass.), at 6×10^6 cells/well or in Lab-Tek chamber slides (Naperville, Ill.) at 1.5×10^6/chamber in Dulbecco's modified Eagle's medium (DMEM) with 2 mM L-glutamine and 10 μg/ml gentamicin (BioWhittaker) or in other suitable vessels. After adherence (4-6 hr at 37° C. and 5% CO2), 10% human AB-serum (Sigma, St. Louis, Mo.) is added to the culture medium. Cells are cultured 5-10 days to allow differentiation into macrophages before being infected with HIV-1BaL TCID50=1000-5000 (Advanced Biotechnologies Inc., Columbia, Md.) or other M tropic (R5) virus for 90 minutes at 37° C. The levels of endotoxin are below the limit of detection in virus preparations. Unbound virus is removed by washing the cells with media and refeeding with complete DMEM containing 10% human serum. Control populations of adherent macrophages are mock-infected and cultured in parallel. Every 3 to 4 days, half the medium is removed for virus assay and replaced with fresh complete medium for two weeks. Supernatant p24 antigen is assayed using the p24 core profile enzyme-linked immunosorbent assay (ELISA) kit (Perkin-Elmer Life Sciences, Wilmington, Del.). […] Additionally, macrophages are treated with p21 anti-sense phosphorothioate oligonucleotides:"}, "[2]": {"system": "p21 (CDKN1A)", "experiment": "p21 (CDKN1A) gene expression in HIV-1 infected macrophages (ribonuclease protection assay)", "format": "cell-based, human", "details": "for human p21 expression: murine-derived antisense sequences tested in human macrophages", "from_the_text": "Total cellular RNA is extracted from adherent control or infected monocytes with the RNeasy minikit (Qiagen, Valencia, Calif.) and analyzed by northern blot (Wahl, S. M. et al. (1998) “MYCOBACTERIUM AVIUM COMPLEX AUGMENTS MACROPHAGE HIV-1 PRODUCTION AND INCREASES CCR5 EXPRESSION. Proc Natl Acad Sci USA 95:12574-12579) using an HIV-full length probe (NIH AIDS Research and Reference Reagent Program) and GAPDH (glyceraldehyde-3-phosphate dehydrogenase) (Gibco BRL, Gaithersburg, Md.). For the RPA 3 μg of RNA is evaluated using the hStress tRiboquant Multi-Probe RPA system (BD Pharmingen, San Diego, Calif.) and densities are normalized to the GAPDH gene using ImageQuant (Molecular Dynamics, Sunnyvale, Calif.)"}, "[3]": {"system": "macrophages", "experiment": "Macrophage cell viability / cell number, morphology and ultrastructural analysis", "details": "for cell viability (cell number, morphology, ultrastructural analysis): infected or uninfected macrophage cultures treated with oligonucleotides", "method": "To determine whether the increased p21 influenced viral life cycle, the cells are treated with two distinct p21 anti-sense oligonucleotides (SEQ ID NO. 7 and SEQ ID NO. 9)."}, "[4]": {"system": "CD4 and CCR5", "experiment": "Macrophage CD4 and CCR5 expression", "format": "cell-based, human", "experimental": "Macrophages were also treated with p21 siRNA duplexes (5 nM) five days prior to HIV infection and the effect on HIV-growth was determined (% of positive HIV control, no siRNA treatment) (representative experiment, n=3) (FIG. 6B). The percent of HIV-1 infection was determined comparing the p24 levels in untreated vs oligo or siRNA treated macrophages. Cells treated with p21 and negative control siRNA (5 days) were also analyzed by flow cytometry for CD4 and CCR5 cell surface expression (FIG. 6C). Nested PCR was employed in order to detect pro-viral DNA on days 1 and 3 after HIV-1BaL infection in macrophages treated with p21 or control siRNA or negative control si RNA. Control represents uninfected cells (FIG. 6D)."}, "[5]": {"system": "HIV-1", "experiment": "Transmission electron microscopy (ultrastructural analysis) of HIV-1 infected macrophages", "format": "cell-based", "details": "day 12; ≧200 cells/treatment condition", "from_the_text": "Gluteraldehyde-fixed uninfected and infected cells are postfixed in OsO4, dehydrated through graded ethanol and propylene oxide, embedded in Spurr's epoxy, and thick- and thin-sectioned. Thin sections are placed on copper grids, stained with uranyl acetate and lead citrate, and viewed in a Zeiss EM10 microscope (LEO Electron Microscope; Oberkochen, Germany)."}, "[6]": {"system": "p21 (CDKN1A)", "experiment": "p21 protein levels in macrophages", "format": "cell-based, human", "details": "concomitant with reducing HIV infection", "experimental": "Uninfected and HIV-1 infected macrophages that have been cultured for twelve days are washed twice with PBS, fixed with 2% paraformaldehyde in PBS, washed and incubated in 100 mM glycine in PBS for 20 min, followed by 0.5% Triton-X-100 for 10 min and rinsed with PBS. Cells are then labeled with rabbit anti-p21 antibody at 5 μg/ml (Santa Cruz Biotechnology, Santa Cruz, Calif.) in PBS containing 5% donkey serum (Jackson ImmunoResearch Laboratories, Inc., West Grove, Pa.) for 1 hr, washed extensively, then incubated with Texas-Red conjugated secondary antibody at 3 μg/ml at room temperature (Molecular Probes, Eugene, Oreg.). Non-specific background is determined using an irrelevant rabbit isotype control antibody and secondary antibody alone at the same concentrations above. Images are captured using a Leica TCS-4D confocal microscope system with a Kr—Ar laser on a DMR upright microscope using a 40×, 1.0 numerical aperture objective. Fluorescence intensity analysis is performed using confocal microscopy and Metamorph analysis (Universal Imaging, Downington, Pa.). […]"}, "[7]": {"system": "p21", "experiment": "Induction of p21 gene and protein expression in macrophages treated with Vpr", "format": "cell-based, human", "details": "Vpr 6 μg/ml for 3 hr", "experimental": "Macrophages were treated with Vpr (6 μg/ml) for 3 hr and found to show increased gene transcription and protein expression for p21 when treated with Vpr (FIG. 7A and FIG. 7B)."}}, "note": "“Also recorded” adds a separate entry of the source. Read-outs that look alike come from different tables or passages of the source."}
{"compound": "5′-ACATCACCAGGATTGGACAT-3′ (all phosphorothioate, sugars by position and methylation of C not given here; listed as Mus musculus) [SEQ ID NO. 9]", "values": [{"measurement": "viral replication / HIV-1 growth as determined by p24 levels", "setting": "[1]", "result": "reduce viral replication; also recorded: inhibit HIV-1 growth"}, {"measurement": "human p21 expression", "setting": "[2]", "result": "effective in inhibiting"}, {"measurement": "cell viability (cell number, morphology, ultrastructural analysis)", "setting": "[3]", "result": "no negative effect"}, {"measurement": "effect on macrophage CD4 and CCR5", "setting": "[4]", "result": "no direct effect"}]}
{"compound": "5′-TGGATCCGACATGTCAGA-3′ [SEQ ID NO. 14]", "values": [{"measurement": "viral replication / HIV-1 growth as determined by p24 levels", "setting": "[1]", "result": "not"}, {"measurement": "viral replication / HIV-1 growth as determined by p24 levels", "setting": "[1]; listed as SEQ ID NO. 13", "result": "did not suppress"}]}
{"compound": "5′-TGTCAGGCTGGTCTGCCTCC-3′ (all phosphorothioate, sugars by position and methylation of C not given here; listed as Mus musculus) [SEQ ID NO. 7]", "values": [{"measurement": "viral replication / HIV-1 growth as determined by p24 levels", "setting": "[1]", "result": "reduce viral replication; also recorded: inhibit HIV-1 growth"}, {"measurement": "human p21 expression", "setting": "[2]", "result": "effective in inhibiting"}, {"measurement": "cell viability (cell number, morphology, ultrastructural analysis)", "setting": "[3]", "result": "no negative effect"}, {"measurement": "effect on macrophage CD4 and CCR5", "setting": "[4]", "result": "no direct effect"}]}
{"compound": "CC1(C)CC[C@]2(C(=O)O)CC[C@]3(C)[C@H](C(=O)C=C4[C@@]5(C)C=C(C#N)C(=O)C(C)(C)[C@@H]5CC[C@]43C)[C@@H]2C1", "note": "[CDDO]", "values": [{"measurement": "detectable virions (TEM)", "setting": "[5]", "result": "absence or near absence of detectable virions"}, {"measurement": "numbers of infected cells (ultrastructural analysis, TEM)", "setting": "[5]", "result": "dramatically reduced numbers of infected cells"}, {"measurement": "release of the viral protein p24 Ag", "setting": "[1]; added prior to, or at the time of, infection of macrophages with HIV-1, CDDO 0.1 μM", "result": "dose dependent suppression"}, {"measurement": "levels of detectable virus", "setting": "[1]; macrophages infected with HIV-1", "result": "dramatically reduced"}, {"measurement": "viral replication as quantitated by p24 levels", "setting": "[1]; macrophages pre-treated 45 min, then infected with HIV-1BaL, compared with DMSO control and untreated cells, day 10, n=3, P=0.01", "result": "reduced viral replication"}, {"measurement": "p21 protein levels", "setting": "[6]", "result": "variably decrease"}, {"measurement": "p21 transcription by ribonuclease protection assay", "setting": "[2]; HIV-1 infected macrophages, day 12 post-infection, mean, n=2", "result": "reduced p21 transcription"}, {"measurement": "cell viability or cell number", "setting": "[3]; HIV-1 infected macrophages treated with CDDO or di-CDDO", "result": "Without reducing cell viability or cell number"}]}
{"compound": "Vpr: HIV-1 Vpr gene product, added to macrophages at 6 μg/ml", "values": [{"measurement": "p21 gene transcription", "setting": "[7]", "result": "increased"}, {"measurement": "p21 protein expression", "setting": "[7]", "result": "increased"}]}
